The source of these data is US4980349A, “Sulphonamides derived from diarylmethanes, the processes for preparing them and pharmaceutical compositions containing them” (SANOFI, priority 1986, dated 1990).

Experiment [1] deals with rat hind foot kaolin-induced arthritis. Briefly: Kaolin-induced arthritis test, second experiment, acute phase (volume of the foot at the 8th hour). It is filed as in vivo. As to conditions: po, 8 h, Table IXa; for change in vivo at 25 mg/kg / change in vivo at 50 mg/kg / change in vivo at 100 mg/kg: 8th hour, read-out: percentage significant decrease in the volume of the treated foot; for ED50: foot volume, read-out: 50% active dose. How it is done: (§1) The […] of 0.05 ml of a sterile 10% strength suspension of kaolin into the metatarsal flexor sheath of the hind foot of a rat initially induces an oedematous reaction. An inflammatory arthritis then forms.
(§2) The early oedematous reaction appears from the first hour, and reaches its maximum between the fourth hour and the sixth hour. This is the manifestation of interest. The assessment of the volume of the foot enables the action of substances on the oedematous reaction to be studied. The measurements are carried out using a Giono and Chevilard plethysmometer.
(§3) The test products are administered orally (stomach tube) one hour before the injection of the kaolin.
(§4) In a second experiment, a more elaborate study was performed in order to ascertain the effect of the products, on the one hand on the acute phase of the inflammatory reaction (measured by the volume of the foot at the 8th hour), and on the other hand on the chronic phase (activity measured by the weight of the foot at the 12th hour).
As in the previous experiment, ketoprofen was used as the comparative product:
The results are expressed as a percentage significant decrease in the volume of the treated foot compared with the controls.

For experiment [2] the test system is unchanged. Description: Kaolin-induced arthritis test, second experiment, chronic phase (weight of the foot at the 12th hour). The conditions noted are these: po, 12 h, Table IXb; for change in vivo at 25 mg/kg / change in vivo at 50 mg/kg / change in vivo at 100 mg/kg: 12th hour, read-out: percentage significant decrease in the weight of the treated foot; for ED50: foot weight, read-out: 50% active dose. It is filed as in vivo. How it is done:
as §1, §3, §4
As in the previous experiment, ketoprofen was used as the comparative product: […]

The test system of experiment [3] is foreign-body (sponge) granuloma in rats. Description: Experimental granuloma induced by foreign body, histological study. It counts as in vivo, Wistar rats. As to conditions: for histological study of the granuloma (inflammatory connective / granulation tissue): second experiment, day 8, Table XIa. How it is done:
(§5) This test consists in studying the subacute cellular phase which is developed in the 8 days which follow the implantation of a foreign body, a sponge of non-resorbable plastic, in the dorsal subcutaneous connective tissue in rats.
The granulomas formed are removed 8 days after the implantation; a histological study is carried out after fixing the tissue and staining sections with hematein/ eosin. The observation is more especially concerned with the cell population of the primary phase of the formation of the granulation tissue: the reticulohistocytic cells, lymphocytes and more especially the macrophages.
(§6) The animals used are Wistar rats weighing 120-140 g and of the same origin, maintained under the same conditions of housing throughout the treatment (8 days).
(§7) The compounds of the invention are administered orally, in a gum suspension, in the morning in a fasted state, using an oesophageal tube.
After 8 days of treatment, the rats are sacrificed by decapitation and the granulomas removed and prepared for the purpose of histological examination.
The experiment conditions are as follows:
The animals are distributed in batches of 10;
Each test product is administered at 2 doses, of 50 and 100 mg, respectively, to 2 batches of 10 animals;
Ketoprofen is used by way of reference product at the same 2 doses and under the same conditions; and
A batch of 10 control animals receives no treatment.
(§8) In this experiment, on the one hand a histological study of the granulomas is performed by sampling on day 8 (results recorded in Table XIa), and on the other hand a study of the weight of the granulomas was performed 10 days after the implantation (results recorded in Table XIb).

Experiment [4] deals with biosynthesis of leukotrienes B4 (LTB4), human polymorphonuclear leukocytes. Description: Biosynthesis of LTB4, isomers and oxidized metabolites in human polymorphonuclear leukocytes. It is filed as cell-based. As to conditions: Leukocyte, second experiment, read-out: Percentage inhibition of LTB4 formation. How it is done: Polymorphonuclear leukocytes are isolated from human blood and used during the 6 hours following the withdrawal. The viability of the cells is checked by trypan blue exclusion.
5×10^6 cells are incubated for 10 minutes at 37° C. in the presence of the test product dissolved in DMSO, and are stimulated with ionophore A 23187 (Galbiochem, 10 μM) in PBS buffer at pH 7.4, Ca^2+ and Mg^2+ =1 μM.
100 ng of prostaglandin B2 (PGB2), dissolved in methanol, are added at the end of the reaction to act as an internal standard.
On centrifugation, the culture supernatant is withdrawn. The latter is retrieved under argon and stored at -80° C. until analysed by HPLC.
This analysis is carried out by injecting 250 μl onto a 5 μm ODS ultrasphere column (Beckmann), with a gradient of acetonitrile (20-80%) in water, at pH 7.4.
The amounts of the different products which absorb at 269 nm, i.e. leukotrienes B4 (LTB4), isomers of LTB4 and oxidized metabolites of LTB4, are estimated by comparison with the internal standard.
The test product is used at a concentration of 40 μM.
They are expressed either as a percentage inhibition, or as a percentage increase in the production of LTB4, isomers of LTB4 and oxidized metabolites of LTB4 (designated by +).
The experimental model is the same as that described in Section 2.1. Other products are tested by comparison with the compound of the invention no. 1574, used as a control.

Experiment [5] concerns rat hind foot carragheenin-induced oedema. Description: Carragheenin-induced oedema test. It is filed as in vivo. The conditions noted are these: 3 h, read-out: percentage inhibition of the inflammation; for change in vivo at 25 mg/kg: 25 mg/kg oral; for change in vivo at 50 mg/kg: 50 mg/kg oral; for change in vivo at 100 mg/kg: 100 mg/kg oral. How it is done:
In this test, 10 rats are used per test compound of the invention. Control batches of 10 rats also receive either the comparative compound (ketoprofen) or exclusively an NaCl solution.
The compounds of the invention are administered orally (stomach tube) one hour before the injection of carragheenin.
The carragheenin is suspended at a concentration of 1% in a 0.9% isotonic sodium chloride solution. The volume injected into the rat's foot is 0.20 ml.
The volume of the foot is measured before the injection and 3 hours later. The antagonistic effect of the products towards carragheenin is reflected in the inhibition of the volume of the oedema compared with control rats. The latter receive only isotonic NaCl solution under identical conditions.

The test system of experiment [6] is pain threshold of brewer's yeast inflamed rat hind foot. Briefly: Randall and Sellitto's test (analgesic activity). It counts as in vivo. How it is done:
Inflammation increases the sensitivity to pain, in particular to pressure, and analgesics raise the threshold of the sensitivity.
The inflammation is obtained by injecting 0.1 ml of a 20% strength aqueous suspension of brewer's yeast under the plantar aponeurosis of one of the hind feet. […] The pain threshold is assessed in terms of the force necessary and sufficient to initiate a characteristic reaction of withdrawing the foot.
The sensitivity to pain of the inflamed foot reaches a plateau 4 hours after the injection of the brewer's yeast, and then remains stable until the 6th hour. The pain threshold of the inflamed foot in control rats weighing 140 g is reached for pressures of 50 to 60 g, whereas it is around 160 g for the intact foot.
The action of the substance administered orally to series of 10 rats is expressed in terms of the percentage increase in the mean pain threshold, compared with that measured in the rats of a control series of 10 animals which have not received a compound of the invention.
The test products are administered orally (stomach tube) one hour before the injection of brewer's yeast.
The comparative compound used is ketoprofen.

For experiment [7], the system named is foreign-body (sponge) granuloma in rats. Description: Experimental granuloma induced by foreign body, weight of the granulomas. It is filed as in vivo, Wistar rats. The conditions noted are these: Rattus norvegicus, po, 240 h, 10 days after implantation, Table XIb, read-out: decrease in the weight of the granulomas. How it is done: as §5, §6, §7, §8
Experiment [8] deals with rat hind foot kaolin-induced oedema. Description: Kaolin-induced arthritis test, first experiment (decrease in inflammation, foot volume). It counts as in vivo. The conditions noted are these: 1 h before kaolin, Table IX, read-out: percentage decrease in the inflammation. How it is done:
as §1, §2, §3
The results are expressed as a percentage decrease in the inflammation in the treated animals compared with a control series of animals.
The batches are of 10 animals per dose and 10 control animals.
The figures shown represent the mean of 10 animals.

Setting [9] is: 25 mg/kg oral, second experiment, Table XIIa, read-out: percentage increase in the mean pain threshold.
Setting [10] is: 50 mg/kg oral, second experiment, Table XIIa, read-out: percentage increase in the mean pain threshold.
[11] abbreviates: 100 mg/kg oral, second experiment, Table XIIa, read-out: percentage increase in the mean pain threshold.

Like-named read-outs stand apart in the source and are kept apart here.

On to `O=C(O)CCCCCCCCCCCNS(=O)(=O)c1ccc(Cl)cc1C(=O)c1ccccc1Cl` [Compound 1755], for which the change in vivo at 25 mg/kg in experiment [1] was -48 ± 5%; in experiment [2] it was -45%; in experiment [5] (second experiment, Table Xa) it was -45%; in experiment [6] (setting [9]), 40%; in experiment [7], -45%. The change in vivo at 50 mg/kg was -50 ± 5% in experiment [1]; -55% in experiment [2]; -52% in experiment [5] (second experiment, Table Xa); 50% in experiment [6] (setting [10]); -50% in experiment [7]. Also, the change in vivo at 100 mg/kg in experiment [1] is -55 ± 5%; in experiment [2], -58%; in experiment [5] (second experiment, Table Xa), -55%; in experiment [6] (setting [11]) it was 55%; in experiment [7], -55%. Besides, the ED50 in experiment [1] and in experiment [2] was 25 mg/kg each time. In experiment [3], the “histological study of the granuloma (inflammatory connective / granulation tissue)” value is reported as “Granuloma poorly developed”. For the same compound, the inhibition (commonly the share of the control response that was lost under treatment) at 40 µM in experiment [4] is 100%.

For the compound `O=C(O)CCCCCCCCCCNS(=O)(=O)c1ccc(Cl)c(C(=O)c2ccc(Cl)cc2)c1` [Compound 1761], the change in vivo at 25 mg/kg in experiment [1] was -38 ± 5%; in experiment [2] it was -40 ± 5%; in experiment [5] (second experiment, Table Xa), -30%; in experiment [6] (setting [9]), 40%; in experiment [7], -25%. Moreover, the change in vivo at 50 mg/kg is -45 ± 5% in experiment [1]; -45 ± 5% in experiment [2]; -35% in experiment [5] (second experiment, Table Xa); 45% in experiment [6] (setting [10]); -30% in experiment [7]. For the same compound, the change in vivo at 100 mg/kg in experiment [1] was -50 ± 5%; in experiment [2], -50 ± 5%; in experiment [5] (second experiment, Table Xa) it was -45%; in experiment [6] (setting [11]), 50%; in experiment [7], -45%. Also, the ED50 in experiment [1] and in experiment [2] was 100 mg/kg each time. Besides, the “histological study of the granuloma (inflammatory connective / granulation tissue)” value in experiment [3] is “Diminished production of inflammatory granulation”. Besides, in experiment [4], the inhibition at 40 µM came out at 100%.

In the case of `CC(C(=O)O)c1cccc(C(=O)c2ccccc2)c1` (stereo not drawn) [Ketoprofen, ketoprofen, reference compound], the change in vivo at 25 mg/kg was -30% in experiment [8] (25 mg/kg oral); -25% in experiment [5] (po, first experiment, Table X); 22% in experiment [6] (po, read-out: percentage increase in the mean pain threshold, 25 mg/kg oral, first experiment, Table XII); 50% in experiment [6] (po, read-out: percentage increase in the mean pain threshold, 25 mg/kg oral, second experiment, Table XIIa). Also, the change in vivo at 50 mg/kg in experiment [8] (50 mg/kg oral) was -51%; in experiment [5] (po, first experiment, Table X), -45%; in experiment [6] (po, read-out: percentage increase in the mean pain threshold, 50 mg/kg oral, first experiment, Table XII), 55%; in experiment [6] (po, read-out: percentage increase in the mean pain threshold, 50 mg/kg oral, second experiment, Table XIIa) it was 55%. The change in vivo at 100 mg/kg in experiment [8] (100 mg/kg oral) is -73%; in experiment [5] (po, first experiment, Table X), -65%; in experiment [6] (po, read-out: percentage increase in the mean pain threshold, 100 mg/kg oral, first experiment, Table XII), 78%; in experiment [6] (po, read-out: percentage increase in the mean pain threshold, 100 mg/kg oral, second experiment, Table XIIa), 58%. Besides, the “histological study of the granuloma” value in experiment [3] (both doses (50 and 100 mg/kg) oral, 8 days, Table XI) is on record as “very substantial decrease”.
